Reference: patent publication US6337091B1, “Matrix for controlled delivery of highly soluble pharmaceutical agents” (Temple University - of the Commonwealth System of Higher …, priority 1997, dated 2002)

Legend:
[1] = Dissolution study of diltiazem hydrochloride tablets, USP 23 apparatus II (paddle), deionized water; format: physicochemical
Procedure: The system was automated using an HP diode array UV spectrophotometer, 8452a with continuous sampling, using a peristaltic pump (HP flow control, 89092A) and Mckinet software (HP 89532K Multicell Kinetics Software) for data analysis. Measurements were performed at 238 nm. […] Fresh dissolution medium (5 mL), heated to 37° C., was added to the vessel to maintain constant volume. Each experimental ran (n=3) was done at least in duplicate. […]

[2] = cited from earlier work
[3] = cited from earlier work; remark: listed apart in the source
[4] = Dissolution study of propranolol tablets in deionized water; format: physicochemical
Procedure: The dissolution study was performed in 1,000 ml deionized water at 37° C. and 100 rpm. Measurements were performed at wavelength 289 nm.

SMILES	correlation coefficient of release profile (linearity) ([1]; absence of either gelatin or tragacanth)	correlation coefficient of release profile (linearity) ([1]; diltiazem granulated/coated with gelatin, in binary polymeric matrix)	correlation coefficient of release profile (linearity) ([1]; diltiazem granulated/coated with tragacanth, in binary polymeric matrix)	degradation product, HPLC analysis (USP 23 method) ([1]; entire dissolution period)	bioavailability ([2]; due to extensive variable first-pass metabolism) [%]	clearance from plasma ([2]; in vivo)	elimination half-life ([2]; in vivo) [h]	protein binding [3]	correlation coefficient of release profile (linearity) ([4]; control)	correlation coefficient of release profile (linearity) ([4]; propranolol granulated/coated with gelatin, in binary polymeric matrix)	correlation coefficient of release profile (linearity) ([4]; propranolol granulated/coated with tragacanth, in binary polymeric matrix)
COc1ccc([C@@H]2Sc3ccccc3N(CCN(C)C)C(=O)[C@@H]2OC(C)=O)cc1 [diltiazem, Diltiazem]	0.946	0.997	0.979	no degradation product	30 to 60	high clearance	3 to 6	greater than 90%	–	–	–
CC(C)NCC(O)COc1cccc2ccccc12 (centres unmarked) [propranolol]	–	–	–	–	–	–	–	–	0.927	0.994	0.989
